US20170334899A1, “AMINO-SUBSTITUTED ISOTHIAZOLES” (Bayer Pharma Aktiengesellschaft, priority 2014, published 2017)

Key:
HeLa-MaTu-ADR = assay: Proliferation assay (crystal violet), HeLa-MaTu-ADR; assay type: cell-based; details: 96 h; HeLa-MaTu-ADR cells; 4 days incubation; crystal violet staining; read-out: IC50 inhibition of proliferation, HeLa-MaTu-ADR
Protocol: (§1) Cultivated tumor cells (cells were ordered from ATCC, except HeLa-MaTu and HeLa-MaTu-ADR, which were ordered from EPO-GmbH, Berlin) were plated at a density of 1000 to 5000 cells/well, depending on the growth rate of the respective cell line, in a 96-well multititer plate in 200 μL of their respective growth medium supplemented 10% fetal calf serum. After 24 hours, the cells of one plate (zero-point plate) were stained with crystal violet (see below), while the medium of the other plates was replaced by fresh culture medium (200 μl), to which the test substances were added in various concentrations (0 μM, as well as in the range of 0.001-10 μM; the final concentration of the solvent dimethyl sulfoxide was 0.5%). The cells were incubated for 4 days in the presence of test substances. Cell proliferation was determined by staining the cells with crystal violet: the cells were fixed by adding 20 μl/measuring point of an 11% glutaric aldehyde solution for 15 minutes at room temperature. After three washing cycles of the fixed cells with water, the plates were dried at room temperature. The cells were stained by adding 100 μl/measuring point of a 0.1% crystal violet solution (pH 3.0). After three washing cycles of the stained cells with water, the plates were dried at room temperature. The dye was dissolved by adding 100 μl/measuring point of a 10% acetic acid solution. Absorbtion was determined by photometry at a wavelength of 595 nm. The change of cell number, in percent, was calculated by normalization of the measured values to the aborbtion values of the zero-point plate (=0%) and the absorbtion of the untreated (0 μm) cells (=100%). The IC50 values were determined by means of a 4 parameter fit.

Caco-2 = assay: Proliferation assay (crystal violet), Caco-2; assay type: cell-based; details: Homo sapiens, 96 h; Caco-2 cells; 4 days incubation; crystal violet staining; read-out: IC50 inhibition of proliferation, Caco2
Protocol: as §1

CDK2/CycE = target: T1, CDK2/CycE (Homo sapiens, UniProt P24941); assay: CDK2/CycE kinase assay (TR-FRET); assay type: biochemical; details: avg, read-out: CDK2 avg (IC50 [mol/l])
T1 construct: GST; purchased ProQinase GmbH (Freiburg, Germany); host or cells: insect cells (Sf9)
Procedure, shortened: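 Read-out is a TR-FRET 665/620 nm emission ratio from EDTA-stopped reactions detected with anti-pRB(pSer807/pSer811), Eu-labelled anti-mouse IgG and streptavidin-XL665, scaled between no-enzyme and uninhibited wells. Reaction: Sf9-expressed GST-CDK2/GST-CycE, 15 min compound preincubation, 10 μM ATP, 0.75 μM biotin-peptide, 25 min, 22° C., pH 8.0 Tris buffer.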

NCI-H460 = assay: Proliferation assay (crystal violet), NCI-H460; assay type: cell-based; details: Homo sapiens, 96 h; NCI-H460 cells; 4 days incubation; crystal violet staining; read-out: IC50 inhibition of proliferation, NCI-H460
Protocol: as §1

B16F10 = assay: Proliferation assay (crystal violet), B16F10; assay type: cell-based; details: Mus musculus, B16-F10, 96 h; B16F10 cells; 4 days incubation; crystal violet staining; read-out: IC50 inhibition of proliferation, B16F10
Protocol: as §1

DU145 = assay: Proliferation assay (crystal violet), DU145; assay type: cell-based; details: Homo sapiens, DU-145, 96 h; DU145 cells; 4 days incubation; crystal violet staining; read-out: IC50 inhibition of proliferation, DU145
Protocol: as §1

Row | IC50 (HeLa-MaTu-ADR) | IC50 (Caco-2) | IC50 (CDK2/CycE) | IC50 (NCI-H460) | IC50 (B16F10) | IC50 (DU145) | Structure (SMILES)
1 | 330 nM | 300 nM | ≥ 20000 nM | 290 nM | 700 nM | 570 nM | Cc1nsc(Nc2cnc3ccccc3n2)c1C(=O)Nc1cccc(-c2nc(C(C)(C)C)no2)c1 [Example 108, N-[3-(3-tert-Butyl-1,2,4-oxadiazol-5-yl)phenyl]-3-methyl-5-(quinoxalin-2-ylamino)-1,2-thiazole-4-carboxamide]
2 | 57 nM | 180 nM | ≥ 20000 nM | 170 nM | 300 nM | 140 nM | Cc1nsc(Nc2cnc(C(F)(F)F)cn2)c1C(=O)Nc1ccc(OC2CCN(CCC(F)(F)F)CC2)nc1 [Example 10, 3-Methyl-5-{[5-(trifluoromethyl)pyrazin-2-yl]amino}-N-(6-{[1-(3,3,3-trifluoropropyl)-piperidin-4-yl]oxy}pyridin-3-yl)-1,2-thiazole-4-carboxamide]
3 | 130 nM | 160 nM | ≥ 20000 nM | 98 nM | 190 nM | 300 nM | Cc1nsc(Nc2cnc(C(F)(F)F)cn2)c1C(=O)Nc1ccc(OC2CCN(CC(F)(F)F)CC2)nc1 [Example 9, -Methyl-N-(6-{[1-(2,2,2-trifluoroethyl)piperidin-4-yl]oxy}pyridin-3-yl)-5-{[5-(trifluoromethyl)pyrazin-2-yl]amino}-1,2-thiazole-4-carboxamide]
4 | 660 nM | 100 nM | ≥ 20000 nM | 300 nM | 730 nM | 310 nM | Cc1nsc(Nc2cnc3ccccc3n2)c1C(=O)Nc1ccc(Oc2cccc(C(F)(F)F)c2)nc1 [Example 117, 3-Methyl-5-(quinoxalin-2-ylamino)-N-{6-[3-(trifluoromethyl)phenoxy]pyridin-3-yl}-1,2-thiazole-4-carboxamide]
5 | 110 nM | 150 nM | ≥ 20000 nM | 100 nM | 210 nM | 250 nM | Cc1nsc(Nc2cnc(C(F)(F)F)cn2)c1C(=O)Nc1ccc(OC2CCN(CC(F)F)CC2)nc1 [Example 8, N-(6-{[1-(2,2-Difluoroethyl)piperidin-4-yl]oxy}pyridin-3-yl)-3-methyl-5-{[5-(trifluoromethyl)pyrazin-2-yl]amino}-1,2-thiazole-4-carboxamide]
6 | 410 nM | 330 nM | ≥ 20000 nM | 740 nM | 1100 nM | 800 nM | Cc1nsc(Nc2cnc(C(F)(F)F)cn2)c1C(=O)Nc1ccc(C(=O)OC(C)(C)C)cc1 [Example 96, tert-Butyl 4-{[(3-methyl-5-{[5-(trifluoromethyl)pyrazin-2-yl]amino}-1,2-thiazol-4-yl)carbonyl]amino}benzoate]
7 | 150 nM | 110 nM | ≥ 20000 nM | 170 nM | 460 nM | 460 nM | Cc1nsc(Nc2ccc(C#N)cn2)c1C(=O)Nc1ccc(C(=O)OC(C)(C)C)cc1 [Example 98, tert-Butyl 4-[({5-[(5-cyanopyridin-2-yl)amino]-3-methyl-1,2-thiazol-4-yl}carbonyl)-amino]benzoate]
8 | 950 nM | 1500 nM | ≥ 20000 nM | 360 nM | 800 nM | 2000 nM | Cc1nsc(Nc2cncc(C(F)(F)F)n2)c1C(=O)Nc1ccc(OCC2CCN(C(=O)OC(C)(C)C)C2)nc1 (stereo not drawn) [Example 110, tert-Butyl 3-{[(5-{[(3-methyl-5-{[6-(trifluoromethyl)pyrazin-2-yl]amino}-1,2-thiazol-4-yl)carbonyl]amino}pyridin-2-yl)oxy]methyl}pyrrolidine-1-carboxylate]
9 | 520 nM | 920 nM | ≥ 20000 nM | 810 nM | 1500 nM | 1400 nM | Cc1nsc(Nc2cnc(C(F)(F)F)cn2)c1C(=O)Nc1ccc(OC2CCN(CCF)CC2)nc1 [Example 7, N-(6-{[1-(2-Fluoroethyl)piperidin-4-yl]oxy}pyridin-3-yl)-3-methyl-5-{[5-(trifluoromethyl)pyrazin-2-yl]amino}-1,2-thiazole-4-carboxamide]
10 | 640 nM | 470 nM | ≥ 20000 nM | 270 nM | 400 nM | 1100 nM | Cc1nsc(Nc2cncc(C(F)(F)F)n2)c1C(=O)Nc1ccc(OC2CCN(C(=O)OC(C)(C)C)CC2)nc1 [Example 12, tert-Butyl 4-[(5-{[(3-methyl-5-{[6-(trifluoromethyl)pyrazin-2-yl]amino}-1,2-thiazol-4-yl)carbonyl]amino}pyridin-2-yl)oxy]piperidine-1-carboxylate]
11 | 320 nM | 340 nM | ≥ 20000 nM | 480 nM | 380 nM | 750 nM | Cc1nsc(Nc2ccc(C#N)cn2)c1C(=O)Nc1ccc(Oc2cccc(C(F)(F)F)c2)nc1 [Example 118, 5-[(5-Cyanopyridin-2-yl)amino]-3-methyl-N-{6-[3-(trifluoromethyl)phenoxy]pyridin-3-yl}-1,2-thiazole-4-carboxamide]
12 | 170 nM | 280 nM | ≥ 20000 nM | 230 nM | 350 nM | 660 nM | Cc1nsc(Nc2cnc(C(F)(F)F)cn2)c1C(=O)Nc1ccc(OCC2CCN(C(=O)OC(C)(C)C)C2)nc1 (stereo not drawn) [Example 109, tert-Butyl 3-{[(5-{[(3-methyl-5-{[5-(trifluoromethyl)pyrazin-2-yl]amino}-1,2-thiazol-4-yl)carbonyl]amino}pyridin-2-yl)oxy]methyl}pyrrolidine-1-carboxylate]
